Assay [1] relates to Human recombinant GST-PI3K. Description: PI3K induced-lipid phosphorylation, neomycin-SPA scintillation proximity assay. The following applies: Human recombinant GST-PI3K, SPA. The assay is classed as biochemical.
The test system of assay [2] is IgM-induced Akt phosphorylation in B cell. Description: IgM-induced Akt phosphorylation in B cell (PBMC, flow cytometry). Format: cell-based. The following applies: human PBMC, CD19+ IgM+ B cells, read-out: IC50 μM, inhibition of IgM-induced Akt phosphorylation. As for the experimental part:
Human PBMC were prepared from a Buffy coat (Geneve Hospital) after a Ficoll gradient (Ficoll-Paque™ Plus PHARMACIA ref: 17-1440-03).
Cell concentration was adjusted to 10^6 cells per mL in RPMI (GIBCO Ref: 72400-21) without serum. Before stimulation, 90 μl of PBMC suspension was incubated with 10 μl of diluted compound in a 96 well round bottom plate for 20 minutes at 37° C.
For B cell activation, 30 μl of Fab′2 Goat anti IgM (Jackson Immuno-research) at10 μg/mL was added to each well. After 5 minutes, cell activation was stopped with 4% paraformaldehyde (10 minutes at room temperature).
Fixed PBMC were then treated for 20 minutes with 0.15% Triton, washed twice with PBS and permeabilized with 50% methanol for 15 minutes.
PBMC were washed twice in PBS, resuspended in: PBS-4% FCS and incubated with anti P-Akt ( 1/100 dilution) for one h at room temperature.
After one wash, PBMC were further stained for 30 minutes with a mixture of anti-CD19-PE (BD Biosciences), anti-IgM-FITC (BD Biosciences) and goat anti rabbit IgG-Alexa 647 (Molecular probe).
After washing, PBMC (Peripheral Blood Mononuclear Cells) were analysed on a FACSCalibur instrument (BD Biosciences) equipped with a 633 helium-neon laser, or stored at 4° C. for further analysis. 510^3 B cells events were gathered per sample in the CD19 positive region.
For the analysis, a threshold was applied on P-Akt histogram of CD19+ IgM+ lymphocytes cells from the non stimulated samples and the percentage of cells above this threshold was determined for each sample.

This is an account of results in patent publication US8614215B2, “Quinoxaline inhibitors of phosphoinositide-3-kinases (PI3Ks)” (Merck Serono SA, priority 2007, dated 2013).

Regarding `COC(=O)c1ccc(OC)cc1Nc1nc2ccccc2nc1NS(=O)(=O)c1cccnc1` [Example 2], the 50% inhibitory concentration (IC50) was determined as 88 nM in assay [1] and 0.04 µM in assay [2].
The matching figures for `COC(=O)c1ccc(OC)cc1Nc1nc2ccccc2nc1NS(=O)(=O)c1cn(C)cn1` [Example 1, methyl 4-methoxy-2-[(3-{[(1-methyl-1H-imidazol-4-yl)sulfonyl]amino}quinoxalin-2-yl)amino]benzoate]: 21 nM and 0.07 µM.
Turning to `COc1ccc(CC2CCOCC2)c(Nc2nc3ccccc3nc2NS(=O)(=O)c2ccc(CN(C)C)cc2)c1` [Example 86, 4-[(dimethylamino)methyl]-N-(3-{[methoxy-2-(tetrahydro-2H-pyran-4-ylmethyl)phenyl]amino}quinoxalin-2-yl)benzenesulfonamide], the IC50 in assay [2] amounted to 0.013 µM.
Take `COc1ccc(CC2CCOCC2)c(Nc2nc3ccccc3nc2NS(=O)(=O)c2cccnc2)c1` [Example 9, N-(3-{[5-methoxy-2-(tetrahydro-2H-pyran-4-ylmethyl)phenyl]amino}quinoxalin-2-yl)pyridine-3-sulfonamide]: the results for the IC50 in assay [1] and in assay [2] were 27 nM and 0.01 µM, respectively.
In the same order, the values of `COc1ccc(CC2CCOCC2)c(Nc2nc3ccccc3nc2NS(=O)(=O)c2cn(C)cn2)c1` [Example 7, N-(3-{[5-methoxy-2-(tetrahydro-2H-pyran-4-ylmethyl)phenyl]amino}quinoxalin-2-yl)-1-methyl-1H-imidazole-4-sulfonamide] are 49 nM and 0.02 µM.
For the molecule `COc1ccc(CC2CCN(C(C)=O)CC2)c(Nc2nc3ccccc3nc2NS(=O)(=O)c2cn(C)cn2)c1` [Example 16, N-[3-({2-[(1-acetylpiperidin-4-yl)methyl]-5-methoxyphenyl}amino)quinoxalin-2-yl]-1-methyl-1H-imidazole-4-sulfonamide], the concentration for half-maximal inhibition (IC50) in assay [1] amounted to 89 nM; in assay [2], 0.076 µM.
Take `COc1ccc(CCCO)c(Nc2nc3ccccc3nc2NS(=O)(=O)c2cn(C)c(CN(C)C)n2)c1` [Example 47, 2-[(Dimethylamino)methyl]-N-(3-{[2-(3-hydroxypropyl)-5-methoxyphenyl]amino}quinoxalin-2-yl)-1-methyl-1H-imidazole-4-sulfonamide]: the half-inhibitory concentration (IC50) in assay [1] turned out to be 28 nM.
Still for that read-out and setting: to `COc1cc(Nc2nc3ccccc3nc2NS(=O)(=O)CCCS(C)(=O)=O)cc(C(=O)NCCO)c1` [Example 73, N-(2-Hydroxyethyl)-3-methoxy-5-{[3-({[3-(methylsulfonyl)propyl]sulfonyl}amino)quinoxalin-2-yl]amino}benzamide] belongs 350 nM; to `COc1ccc(CC2C[C@H]3CC[C@@H](C2)N3C)c(Nc2nc3ccccc3nc2NS(=O)(=O)c2cn(C)cn2)c1` (stereo partly drawn) [Example 15, N-{3-[(5-methoxy-2-{[(1R,5S)-8-methyl-8-azabicyclo[3.2.1]oct-3-yl]methyl}phenyl)amino]quinoxalin-2-yl}-1-methyl-1H-imidazole-4-sulfonamide], 110 nM.
The same measure, in the same setting: the value for `COc1ccc(CCS(C)(=O)=O)c(Nc2nc3ccccc3nc2NS(=O)(=O)c2ccccc2)c1` [Example 55, N-[3-({5-Methoxy-2-[2-(methylsulfonyl)ethyl]phenyl}amino)quinoxalin-2-yl]benzenesulfonamide] was 42 nM; that for `COC(=O)CCc1ccc(S(=O)(=O)Nc2nc3ccccc3nc2Nc2cc(OC)ccc2CCO)cc1` [Example 41, Methyl 3-(4-{[(3-{[2-(2-hydroxyethyl)-5-methoxyphenyl]amino}quinoxalin-2-yl)amino]sulfonyl}phenyl)propanoate] was 70 nM; that for `COc1cc(Nc2nc3ccccc3nc2NS(=O)(=O)c2cccnc2)cc(C(=O)N2CCOCC2)c1` [Example 5, N-(3-{[3-methoxy-5-(morpholin-4-ylcarbonyl)phenyl]amino}quinoxalin-2-yl)pyridine-3-sulfonamide] was 3100 nM.
Same read-out and setting: to `COc1ccc(CCO)c(Nc2nc3ccccc3nc2NS(=O)(=O)c2c(C)noc2C)c1` [Example 43] belongs 286 nM; to `COc1ccc(CCCO)c(Nc2nc3ccccc3nc2NS(=O)(=O)c2cccc(NC(=O)CO)c2)c1` [Example 102, 2-Hydroxy-N-(3-{[(3-{[2-(3-hydroxypropyl)-5-methoxyphenyl]amino}quinoxalin-2-yl)amino]sulfonyl}phenyl)acetamide], 12 nM; to `COc1ccc(CCO)c(Nc2nc3ccccc3nc2NS(=O)(=O)CCCS(C)(=O)=O)c1` [Example 61, N-(3-{[2-(2-Hydroxyethyl)-5-methoxyphenyl]amino}quinoxalin-2-yl)-3-(methylsulfonyl)propane-1-sulfonamide], 120 nM.
Consider `COc1ccc(CCCO)c(Nc2nc3ccccc3nc2NS(=O)(=O)C2CCS(=O)(=O)C2)c1` (stereo not drawn) [Example 63, N-(3-{[2-(3-Hydroxypropyl)-5-methoxyphenyl]amino}quinoxalin-2-yl)tetrahydrothiophene-3-sulfonamide 1,1-dioxide], for which the 50% inhibitory concentration (IC50) in assay [1] worked out at 130 nM.
In the case of `COc1ccc(CCO)c(Nc2nc3ccccc3nc2NS(C)(=O)=O)c1` [Example 37, N-(3-{[2-(2-Hydroxyethyl)-5-methoxyphenyl]amino}quinoxalin-2-yl)methanesulfonamide], in assay [1], the half-maximal inhibitory concentration (IC50) is 95 nM.
Consider `COc1ccc(CC2CCC(O)CC2)c(Nc2nc3ccccc3nc2NS(=O)(=O)c2cccnc2)c1` (stereo not drawn) [Example 23, N-[3-({2-[(4-hydroxycyclohexyl)methyl]-5-methoxyphenyl}amino)quinoxalin-2-yl]pyridine-3-sulfonamide], for which the values for the half-inhibitory concentration (IC50) in assay [1] and in assay [2] were 20 nM and 0.017 µM, respectively.
`COc1ccc(CC2CCN(C(C)=O)CC2)c(Nc2nc3ccccc3nc2NS(=O)(=O)c2cccnc2)c1` [Example 17]: the half-maximal inhibitory concentration (IC50) in assay [1] was determined as 51 nM; in assay [2], 0.037 µM.
In the case of `CCCS(=O)(=O)Nc1nc2ccccc2nc1Nc1cc(OC)ccc1CCCO` [Example 49, N-(3-{[2-(3-Hydroxypropyl)-5-methoxyphenyl]amino}quinoxalin-2-yl)propane-1-sulfonamide], the concentration for half-maximal inhibition (IC50) in assay [1] is 49 nM.
On to `COc1ccc(CC2CCOCC2)c(Nc2nc3ccccc3nc2NS(C)(=O)=O)c1` [Example 8, N-(3-{[5-methoxy-2-(tetrahydro-2H-pyran-4-ylmethyl)phenyl]amino}quinoxalin-2-yl)methanesulfonamide], for which the IC50 in assay [1] stood at 130 nM; in assay [2] it was 0.07 µM.
On to `COCCc1ccc(OC)cc1Nc1nc2ccccc2nc1NS(=O)(=O)c1cn(C)c(CS(C)(=O)=O)n1` [Example 79, N-(3-{[5-Methoxy-2-(2-methoxyethyl)phenyl]amino}quinoxalin-2-yl)-1-methyl-2-[(methylsulfonyl)methyl]-1H-imidazole-4-sulfonamide], for which the concentration for half-maximal inhibition (IC50) in assay [1] came out at 200 nM.
